Laboratory results: patent EP0418835B1, “Novel alkaline pullulanase y having alpha-amylase activity, microorganism producing the same, and process for producing the same” (KAO CORPORATION, priority 1989, dated 1991)

Key:
Format in all cases: biochemical, Bacillus sp. KSM-AP1378
alkaline pullulanase Y [1] = assay: Substrate specificity (relative activity on various substrates); conditions: substrate concentration 1 x 10⁻² M
Procedure: (§1) 0.1 ml of enzyme solution was added to 0.9 ml of each substrate solution prepared from each buffer solution containing pullulan (final concentration in the reaction system: 0.25% w/v) and the mixture was reacted at 40°C for 30 minutes. After the reaction, reducing sugars were quantitatively determined by means of the 3,5-dinitro-salicylic acid (DNS) procedure. Specifically, 1.0 ml of a DNS reagent was added to 1.0 ml of reaction mixture and the mixture was heated at 100°C for 5 minutes to develop a color. After cooling, the mixture was diluted by adding 4.0 ml of deionized water. This solution was subjected to colorimetric quantitative analysis at a wave length of 535 nm. One unit (1 U) of enzyme activity was defined as the amount of enzyme which released 1 µmol of reducing sugar (as glucose) per minute under the standard assay conditions.
Acts on pullulan, soluble starch, and glycogen. (See Table 1) Table 1

alkaline pullulanase Y [2] = assay: Effects of metal ions and chelating agents on pullulanase activity (DNS reducing sugar assay)
Procedure: as §1

alkaline pullulanase Y [3] = assay: Effects of metal ions and chelating agents on α-amylase activity (DNS reducing sugar assay)
Procedure: as §1, with “soluble starch” for “pullulan”, “50°C” for “40°C”, “15” for “30”, “a DNS method.” for “the 3,5-dinitro-salicylic acid (DNS) procedure.”

Compound	Relative Activity (%) (alkaline pullulanase Y [1])	Residual activity (%) Pullulanase Activity (alkaline pullulanase Y [2]; metal salt 1 mM)	Residual activity (%) α-amylase Activity (alkaline pullulanase Y [3]; metal salt 1 mM)	also measured
OC[C@H]1O[C@H](O[C@H]2[C@H](O)[C@@H](O)C(O)O[C@@H]2CO)[C@H](O)[C@@H](O)[C@@H]1O (mixture of isomers) [Maltose]	0%	–	–	–
[Cl][Cd][Cl] [CdCl₂]	–	80%	38%	–
O=C(O)CN(CCN(CC(=O)O)CC(=O)O)CC(=O)O [EDTA]	–	–	–	Residual activity (%) Pullulanase Activity (alkaline pullulanase Y [2]; chelating agent 10 mM): 77%
O=C(O)CN(CCOCCOCCN(CC(=O)O)CC(=O)O)CC(=O)O [EGTA]	–	–	–	Residual activity (%) Pullulanase Activity (alkaline pullulanase Y [2]; chelating agent 10 mM): 65%; Residual activity (%) α-amylase Activity (alkaline pullulanase Y [3]; chelating agent 10 mM): 18%; Residual activity (%) α-amylase Activity when Ca⁺² ions was again added (alkaline pullulanase Y [3]; chelating agent 10 mM, Ca⁺² ions added again (value in parenthesis)): 91%
OC[C@H]1O[C@@H](OC[C@H]2OC(O)[C@H](O)[C@@H](O)[C@@H]2O)[C@H](O)[C@@H](O)[C@@H]1O (some centres unmarked) [Gentiobiose]	0%	–	–	–
OC[C@H]1O[C@H](OC[C@H]2OC(O)[C@H](O)[C@@H](O)[C@@H]2O)[C@H](O)[C@@H](O)[C@@H]1O (some centres unmarked) [Isomaltose]	4%	–	–	–
OC[C@H]1O[C@H](OC[C@H]2O[C@H](OC[C@H]3OC(O)[C@H](O)[C@@H](O)[C@@H]3O)[C@H](O)[C@@H](O)[C@@H]2O)[C@H](O)[C@@H](O)[C@@H]1O (some centres unmarked) [Isomaltotriose]	11%	–	–	–
OC[C@H]1O[C@H](O[C@H]2[C@H](O)[C@@H](O)[C@@H](O[C@H]3[C@H](O)[C@@H](O)C(O)O[C@@H]3CO)O[C@@H]2CO)[C@H](O)[C@@H](O)[C@@H]1O (some centres unmarked) [Maltotriose]	0%	–	–	–
[Cl][Mn][Cl] [MnCl₂]	–	51%	28%	–
OC[C@H]1O[C@H](OC[C@H]2O[C@H](O[C@H]3[C@H](O)[C@@H](O)C(O)O[C@@H]3CO)[C@H](O)[C@@H](O)[C@@H]2O)[C@H](O)[C@@H](O)[C@@H]1O (some centres unmarked) [Panose]	0%	–	–	–
[Cl][Pb][Cl] [PbCl₂]	–	53%	53%	–
[Cl-].[Cl-].[Zn+2] [ZnCl₂]	–	93%	57%	–
HgCl₂	–	36%	53%	–
